The values below are quoted from earlier work in article PMC4415995 (Advances in Therapy, 2015).

The subject of the series is patients with T2DM. Particulars: cited from earlier work.
`CCOc1ccc(Cc2cc([C@@H]3O[C@H](CO)[C@@H](O)[C@H](O)[C@H]3O)ccc2Cl)cc1` [dapagliflozin]: the “maximal UGE” value is 85 to 100 g. Regarding `OC[C@H]1O[C@@H](c2ccc(F)c(Cc3cc4ccccc4s3)c2)[C@H](O)[C@@H](O)[C@@H]1O` [ipragliflozin], the “maximal UGE” value was 85 to 100 g.

For the compound `Cc1ccc([C@@H]2O[C@H](CO)[C@@H](O)[C@H](O)[C@H]2O)cc1Cc1ccc(-c2ccc(F)cc2)s1` [canagliflozin], the “maximal UGE” value was 85 to 100 g. Take `OC[C@H]1O[C@@H](c2ccc(Cl)c(Cc3ccc(O[C@H]4CCOC4)cc3)c2)[C@H](O)[C@@H](O)[C@@H]1O` [empagliflozin]: the “maximal UGE” value is 85 to 100 g.
